Source: patent US8697747B2, “Enhancing coagulation or reducing fibrinolysis” (THe UAB Research Foundation, priority 2009, dated 2014)
Marks after values point to notes of the source that are not given here.

Key:
[1] = pure (43.5 mg/mL) or up to three-fold diluted fibrinogen solution
Source text: Exposure of purified fibrinogen to CORM-2. Experiments with purified fibrinogen pre-exposure to CORM-2 were to be performed in a similar fashion as that described with prothrombin. […] Therefore, a concentration-response relationship between various fibrinogen concentrations with or without the addition of CORM-2 was generated as outlined subsequently.

[2] = aqueous solution pH=7.4, 37° C.; cited from earlier work
TAFI deficient plasma = assay: CLSM thrombelastography with tPA, TAFI deficient plasma; type: biochemical, human; details: 100 μM CORM-2, tPA 100 IU/mL, median, n=8
Description: Pooled normal plasma (George King Bio-Medical, Overland Park, Kans.) anticoagulated with sodium citrate was utilized for experimentation. […] Factor XIII (FXIII) deficient plasma anticoagulated with sodium citrate was also obtained from the same vendor.
Plasma Sample Composition. The final volume for all subsequently described plasma sample mixtures was 359.4 μL. Sample composition consisted of 316 μL of plasma; 10 μL of tissue factor (0.1% final concentration in 0.9% NaCl; Diagnostica Stago, Asnieres, France), 3.6 μL of dimethyl sulfoxide (DMSO) or DMSO with CORM-2 (Sigma-Aldrich, St. Louis, Mo.) or DMSO with inactivated CORM-2 (iCORM-2), 10 μL of tissue-type plasminogen activator (tPA, 580 U/μg, Genentech, Inc., San Francisco, Calif.) diluted with 10 mM potassium phosphate buffer (pH 7.4) for a final activity of 100 IU/mL, and 20 μL of 200 mM CaCl2. […] This concentration of CORM-2 was chosen because the concentration of CO released would be expected to be in the mid to lower ranges used in previously reported ex vivo, in vitro, and cell-based experiments (Motterlini et al. 2002; Megias et al. 2007; Chlopicki et al. 2006; Dong et al. 2008). […] (Motterlini et al. 2005). While CORM-2 decays slowly in DMSO, DMSO was added to the dry compound just prior to placement into the plasma mixture. The specific series of experiments are subsequently presented.
Assessment of the Effects of CORM-2 on CLSM Parameters in FXIII, PAI-1, TAFI and α2-antiplasmin Deficient Plasmas. These experiments were performed to elucidate the roles played by antifibrinolytic enzymes during CORM-2 mediated modulation of fibrinolysis. Samples of the various deficient plasmas were exposed to 0 or 100 μM of CORM-2 (n=8 per condition). Samples underwent CLSM analyses as subsequently described.
Clot Lifespan Model Analyses. As described in Example 1, plasma sample mixtures were placed in a disposable cup in a computer-controlled THROMBELASTOGRAPH® hemostasis system (Model 5000, Haemoscope Corp., Niles, Ill.), with addition of CaCl2 as the last step to initiate clotting. Data were collected until clot lysis time occurred. […] As this model involves complete fibrinolysis, TTG is equivalent to ACL, so ACL was not presented as it provides no additional information.
Statistical Analyses. Data are presented as median (1st, 3rd quartiles). […] Nonlinear and linear analyses and curve fitting of the various CORM-2 concentrations effects on CLSM variables were performed with commercially available software (SigmaPlot 11.0, Systat Software, Inc., San Jose, Calif.). Analyses of the effects of CORM-2 and iCORM-2 on CLSM variables in normal plasma were conducted with Kruskal-Wallis one way analysis of variance on ranks, whereas Mann-Whitney rank sum tests were used to assess the effects of CORM-2 on CLSM variables in the various immunodepleted/congenitally deficient plasma types (SigmaStat 3.1, Systat Software, Inc., San Jose, Calif.). Graphical representation of the data was generated with commercially available software (SigmaPlot 11.0, Systat Software, Inc., San Jose, Calif.; CorelDRAW 12.0, Corel Corporation, Ottawa, Ontario, Canada; Origin 7.5, OriginLab Corp., Northampton, Mass.). A P value of <0.05 was considered significant.

rabbit plasma = assay: Thrombelastography in rabbit plasma with or without tPA; type: biochemical
Description: Two sets of two Sprague Dawley outbred male rats were anesthetized with ketamine and xylazine and had blood drawn via cardiac puncture, pooled in two batches, and anticoagulated 1:9 with 3.2% sodium citrate. Two male New Zealand White rabbits were sedated with acepromazine and had blood collected via central ear artery and similarly anticoagulated. Blood was centrifuged at 3000×g for 15 min, and the plasma stored in two batches until analyzed. The final volume for thrombelastographic plasma sample mixtures was 359.6 μL. Sample composition consisted of 316 μL of plasma; 10 μL of tissue factor reagent (0.1% final concentration in dH2O; Instrumentation Laboratory, Lexington, Mass.); 10 μL of dH2O or tissue-type plasminogen activator (tPA, 580 U/μg, Genentech, Inc., San Francisco, Calif.) for a final activity of 2000 U/mL for rat plasma or 300 IU/mL for rabbit plasma; 3.6 μL of dimethyl sulfoxide (DMSO) or DMSO with CORM-2 (100 μM final concentration; Sigma-Aldrich, St. Louis, Mo.); and 20 μL of 200 mM CaCl2. The tPA activity for each species was determined with pilot data to obtain reproducible lysis within 15 min. There was no appreciable lysis in rat plasma at 100, 300, or 1000 U/mL tPA. Plasma sample mixtures were placed in a disposable cup in a computer-controlled THROMBELASTOGRAPH® hemostasis system (Model 5000, Haemoscope Corp., Niles, Ill.), with addition of CaCl2 as the last step to initiate clotting. In experiments without tPA, data were collected until clot strength (maximum amplitude) was stable. In experiments with tPA, data derived from the second rabbit plasma samples were collected for 60 min whereas data obtained with the second rat plasma samples were collected for 15 min. Thrombelastographic variables were determined at 39° C. as previously described in Examples 1, 2, and 4. Data were statistically compared with unpaired Student's t-test.

[3] = 300 U/ml tPA, 100 μM CORM-2, mean ± SD, n=4
[4] = 300 U/ml tPA, 100 μM vs 0 μM CORM-2
[5] = no tPA, 100 μM CORM-2, mean ± SD, n=7

[C-]#[O+].[C-]#[O+].[C-]#[O+].[C-]#[O+].[C-]#[O+].[C-]#[O+].[Cl][Ru][Cl].[Cl][Ru][Cl] [CORM-2, tricarbonyldichlororuthenium (II) dimer]
solubility of CORM-2 in DMSO added to purified fibrinogen solution [1]: not soluble
CO released from every mole of CORM-2 [2]: 0.75 mol
CGT (clot growth time) (TAFI deficient plasma): 410 s
CLS (clot lifespan) (TAFI deficient plasma): 370 s
CLT (clot lysis time) (TAFI deficient plasma): 932 s
MRL (maximum rate of lysis) (TAFI deficient plasma): −1.4 -dynes/cm^2/sec
MRTG (maximum rate of thrombus generation) (TAFI deficient plasma): 6.1 dynes/cm^2/sec
TMRL (time to maximum rate of lysis) (TAFI deficient plasma): 612 s
TMRTG (time to maximum rate of thrombus generation) (TAFI deficient plasma): 175 s
TTG (total thrombus generation) (TAFI deficient plasma): 142 dynes/cm^2
ACL (area under the curve of lysis) (rabbit plasma; [3]): 196.3 ± 25*^ −dynes/cm^2
MRL (maximum rate of lysis) (rabbit plasma; [3]): −2.5 ± 0.4 −dynes/cm^2/sec
MRTG (maximum rate of thrombus generation) (rabbit plasma; [3]): 14.2 ± 1.4 dynes/cm^2/sec
TMRL (time to maximum rate of lysis) (rabbit plasma; [3]): 2.6 ± 0.5 min
TMRTG (time to maximum rate of thrombus generation) (rabbit plasma; [3]): 2.8 ± 0.1 min
TTG (total thrombus generation) (rabbit plasma; [3]): 237 ± 8 dynes/cm^2
Percent Change of ACL (rabbit plasma; [4]): 94%
Percent Change of MRL (rabbit plasma; [4]): −63%
Percent Change of MRTG (rabbit plasma; [4]): 52%
Percent Change of TMRL (rabbit plasma; [4]): 110%
Percent Change of TMRTG (rabbit plasma; [4]): 8%
Percent Change of TTG (rabbit plasma; [4]): 118%
MRTG (maximum rate of thrombus generation) (rabbit plasma; [5]): 13.9 ± 2.9 dynes/cm^2/sec
TMRTG (time to maximum rate of thrombus generation) (rabbit plasma; [5]): 2.8 ± 0.1 min
TTG (total thrombus generation) (rabbit plasma; [5]): 290 ± 35 dynes/cm^2
Percent Change of MRTG (rabbit plasma; no tPA, 100 μM vs 0 μM CORM-2): 46%
Percent Change of TMRTG (rabbit plasma; no tPA, 100 μM vs 0 μM CORM-2): 5%
Percent Change of TTG (rabbit plasma; no tPA, 100 μM vs 0 μM CORM-2): 25%
